According to ChEMBL document CHEMBL1201862, “PubChem BioAssay data set” (2004):
“And” between values parts separate entries of the source, which are not always exact repeats. Identical values can stand only once.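 Five compound concentrations were applied to cells in 96-well plates for 48 hours; endpoints were derived by simple linear interpolation of the resulting dose-response curve. Here, GI50 denotes the concentration required for 50% inhibition of growth.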 The source made the active and inactive calls. No stated cut-off is given here; in the data, active = GI50 up to about 1.1 µM and inactive = higher.

How the values were obtained:
Assay in all cases: NCI-60 cell line screen, 48 h
786-0 = system: 786-0
A549 = system: A549
ACHN = system: ACHN
BT-549 = system: BT-549
CAKI-1 = system: CAKI-1
COLO 205 = system: COLO 205
DU-145 = system: DU-145
EKVX = system: EKVX
HCC 2998 = system: HCC 2998
HCT-116 = system: HCT-116
HCT-15 = system: HCT-15
HOP-62 = system: HOP-62
HOP-92 = system: HOP-92
HT-29 = system: HT-29
IGROV-1 = system: IGROV-1
KM12 = system: KM12
LOX IMVI = system: LOX IMVI
M14 = system: M14
MCF7 = system: MCF7
MDA-MB-231 = system: MDA-MB-231
MDA-MB-435 = system: MDA-MB-435
MDA-N = system: MDA-N
MOLT-4 = system: MOLT-4
NCI-H226 = system: NCI-H226
NCI-H23 = system: NCI-H23
NCI-H460 = system: NCI-H460
NCI/ADR-RES = system: NCI/ADR-RES
OVCAR-3 = system: OVCAR-3
OVCAR-4 = system: OVCAR-4
OVCAR-5 = system: OVCAR-5
OVCAR-8 = system: OVCAR-8
PC-3 = system: PC-3
SF-295 = system: SF-295
SF-539 = system: SF-539
SK-MEL-28 = system: SK-MEL-28
SK-MEL-2 = system: SK-MEL-2
SK-MEL-5 = system: SK-MEL-5
SK-OV-3 = system: SK-OV-3
SN12C = system: SN12C
SNB-19 = system: SNB-19
SNB-75 = system: SNB-75
SW-620 = system: SW-620
T47D = system: T47D
TK-10 = system: TK-10
U-251 = system: U-251
UACC-257 = system: UACC-257
UO-31 = system: UO-31
A498 = system: A498
CCRF-CEM = system: CCRF-CEM
HL-60 = system: HL-60
Hs-578T = system: Hs-578T
K562 = system: K562
Malme-3M = system: Malme-3M
NCI-H522 = system: NCI-H522
RPMI-8226 = system: RPMI-8226
RXF 393 = system: RXF 393
SF-268 = system: SF-268
SR = system: SR
UACC-62 = system: UACC-62

In the case of `O=C1Nc2ccccc2/C1=N/Nc1nc(-c2ccc([N+](=O)[O-])cc2)cs1`, the GI50 (786-0) is reported as 19.4 µM (inactive), the GI50 (A549) is reported as 30.1 µM (inactive) and the GI50 (ACHN) is reported as 13.3 µM (inactive). For the same molecule, the GI50 (BT-549) was 15.6 µM (inactive), the GI50 (CAKI-1) was 17.9 µM (inactive) and the GI50 (COLO 205) was 44.2 µM (inactive). For the same molecule, the GI50 (DU-145) was 26.5 µM (inactive), the GI50 (EKVX) was 61 µM (inactive) and the GI50 (HCC 2998) was 21.9 µM (inactive). The GI50 (HCT-116) was 29.6 µM (inactive), the GI50 (HCT-15) was 14.5 µM and the GI50 (HOP-62) was > 100 µM (inactive). For the same molecule, the GI50 (HOP-92) was 17.4 µM (inactive), the GI50 (HT-29) was 22.9 µM (inactive) and the GI50 (IGROV-1) was 18.7 µM (inactive). The GI50 (KM12) was 28.5 µM (inactive), the GI50 (LOX IMVI) was 35.6 µM (inactive) and the GI50 (M14) was 15 µM (inactive). For the same molecule, the GI50 (MCF7) was 35.3 µM (inactive), the GI50 (MDA-MB-231) was 40.9 µM (inactive) and the GI50 (MDA-MB-435) was 24.7 µM (inactive). The GI50 (MDA-N) was 27 µM (inactive), the GI50 (MOLT-4) was 51.9 µM (inactive) and the GI50 (NCI-H226) was 38.9 µM (inactive). The GI50 (NCI-H23) was 27.7 µM (inactive), the GI50 (NCI-H460) was 11 µM (inactive) and the GI50 (NCI/ADR-RES) was 15.6 µM (inactive). The GI50 (OVCAR-3) was 30.8 µM (inactive), the GI50 (OVCAR-4) was 18.1 µM (inactive) and the GI50 (OVCAR-5) was 22 µM (inactive). The GI50 (OVCAR-8) was 16.8 µM (inactive), the GI50 (PC-3) was 24 µM (inactive) and the GI50 (SF-295) was 24.1 µM (inactive). The GI50 (SF-539) was 17.1 µM (inactive), the GI50 (SK-MEL-28) was 29.7 µM (inactive) and the GI50 (SK-MEL-2) was 26.9 µM (inactive). For the same molecule, the GI50 (SK-MEL-5) was 31.7 µM (inactive), the GI50 (SK-OV-3) was 63.1 µM (inactive) and the GI50 (SN12C) was 27 µM (inactive). For the same molecule, the GI50 (SNB-19) was 44.1 µM (inactive), the GI50 (SNB-75) was 7.45 µM (inactive) and the GI50 (SW-620) was 32.7 µM (inactive). For the same molecule, the GI50 (T47D) was 29.1 µM (inactive), the GI50 (TK-10) was 17.5 µM (inactive) and the GI50 (U-251) was 57 µM (inactive). For the same molecule, the GI50 (UACC-257) was 32.1 µM (inactive) and the GI50 (UO-31) was 11.4 µM (inactive).
In the case of `CN(C)Cc1c(O)ccc2c1c1c(n2C)C(=O)c2ccccc2C1=O`, the GI50 (786-0) is reported as 7.21 µM (inactive), the GI50 (A498) is reported as 4.43 µM (inactive) and the GI50 (A549) is reported as 2.51 µM (inactive). The GI50 (ACHN) was 2.31 µM (inactive), the GI50 (BT-549) was 11.5 µM (inactive) and the GI50 (CAKI-1) was 4.52 µM (inactive). For the same molecule, the GI50 (CCRF-CEM) was 0.492 µM (active), the GI50 (COLO 205) was 6.76 µM (inactive) and the GI50 (DU-145) was 3.75 µM (inactive). The GI50 (EKVX) was 13.5 µM (inactive), the GI50 (HCC 2998) was 3.45 µM (inactive) and the GI50 (HCT-116) was 9.95 µM (inactive). For the same molecule, the GI50 (HCT-15) was 4.49 µM, the GI50 (HL-60) was 7.38 µM (inactive) and the GI50 (HOP-62) was 15.1 µM (inactive). For the same molecule, the GI50 (HOP-92) was 12.6 µM (inactive), the GI50 (HT-29) was 1.4 µM (inactive) and the GI50 (Hs-578T) was 18.7 µM (inactive). For the same molecule, the GI50 (IGROV-1) was 3.73 µM (inactive), the GI50 (K562) was 3.12 µM (inactive) and the GI50 (KM12) was 3.2 µM (inactive). For the same molecule, the GI50 (LOX IMVI) was 1.79 µM (inactive), the GI50 (M14) was 11.2 µM (inactive) and the GI50 (MCF7) was 5.86 µM (inactive). For the same molecule, the GI50 (MDA-MB-231) was 7.8 µM (inactive), the GI50 (MDA-MB-435) was 4.35 µM (inactive) and the GI50 (MOLT-4) was 0.544 µM (active). For the same molecule, the GI50 (Malme-3M) was 3.72 µM (inactive), the GI50 (NCI-H226) was 11 µM (inactive) and the GI50 (NCI-H23) was 5.12 µM (inactive). The GI50 (NCI-H460) was 1.85 µM (inactive), the GI50 (NCI-H522) was 3.95 µM (inactive) and the GI50 (NCI/ADR-RES) was 2.73 µM (inactive). The GI50 (OVCAR-3) was 4.75 µM (inactive), the GI50 (OVCAR-4) was 4.28 µM (inactive) and the GI50 (OVCAR-5) was 4.16 µM (inactive). For the same molecule, the GI50 (OVCAR-8) was 5.46 µM (inactive), the GI50 (PC-3) was 3.9 µM (inactive) and the GI50 (RPMI-8226) was 2.67 µM (inactive). The GI50 (RXF 393) was 12.4 µM (inactive), the GI50 (SF-268) was 7.85 µM (inactive) and the GI50 (SF-295) was 6.17 µM (inactive). The GI50 (SF-539) was 10.3 µM (inactive), the GI50 (SK-MEL-28) was 4.69 µM (inactive) and the GI50 (SK-MEL-2) was 5.31 µM (inactive). For the same molecule, the GI50 (SK-MEL-5) was 6.49 µM (inactive), the GI50 (SK-OV-3) was 20.2 µM (inactive) and the GI50 (SN12C) was 3.62 µM (inactive). The GI50 (SNB-19) was 6.19 µM (inactive), the GI50 (SNB-75) was 12.3 µM (inactive) and the GI50 (SR) was 1.06 µM (active). The GI50 (SW-620) was 4.72 µM (inactive), the GI50 (T47D) was 11.7 µM (inactive) and the GI50 (TK-10) was 7.41 µM (inactive). The GI50 (U-251) was 4.52 µM (inactive), the GI50 (UACC-257) was 5.24 µM (inactive) and the GI50 (UACC-62) was 3.55 µM (inactive). The GI50 (UO-31) was 4.01 µM (inactive).
For `COc1ccc(-c2c(C#N)c(N)n(C3OC(COC(C)=O)C(OC(C)=O)C(OC(C)=O)C3OC(C)=O)c(=S)c2C#N)cc1` (stereo not given), the GI50 (786-0) was 27.7 µM (inactive) and 28.6 µM (inactive), the GI50 (A498) was 33.7 µM (inactive) and 28.6 µM (inactive) and the GI50 (ACHN) was 50.8 µM (inactive) and 33.6 µM (inactive). For the same molecule, the GI50 (BT-549) was 26.1 µM (inactive) and 26.7 µM (inactive), the GI50 (CAKI-1) was 34.6 µM (inactive) and 53.1 µM (inactive) and the GI50 (EKVX) was 26.5 µM (inactive) and 30 µM (inactive). The GI50 (HCC 2998) was 30.3 µM (inactive) and 18.2 µM (inactive), the GI50 (HCT-116) was 55.5 µM (inactive) and 39.4 µM (inactive) and the GI50 (HCT-15) was 50.2 µM. The GI50 (HOP-62) was 28.6 µM (inactive) and 19.8 µM (inactive), the GI50 (HOP-92) was 17.1 µM (inactive) and 19.2 µM (inactive) and the GI50 (Hs-578T) was 36.6 µM (inactive) and 27.4 µM (inactive). The GI50 (LOX IMVI) was 34.3 µM (inactive) and 32.9 µM (inactive), the GI50 (MCF7) was 29 µM (inactive) and 22.2 µM (inactive) and the GI50 (MDA-MB-231) was 27.9 µM (inactive) and 29.9 µM (inactive). For the same molecule, the GI50 (Malme-3M) was 43.9 µM (inactive) and 23.9 µM (inactive), the GI50 (NCI-H226) was 50.1 µM (inactive) and 91 µM (inactive) and the GI50 (NCI-H23) was 44 µM (inactive) and 58.6 µM (inactive). For the same molecule, the GI50 (NCI-H460) was 47 µM (inactive) and 61.4 µM (inactive), the GI50 (NCI-H522) was 23.3 µM (inactive) and 25.6 µM (inactive) and the GI50 (NCI/ADR-RES) was > 100 µM (inactive) and 75.2 µM (inactive). The GI50 (OVCAR-4) was 24.4 µM (inactive) and 23.4 µM (inactive), the GI50 (OVCAR-8) was 34.2 µM (inactive) and 21.3 µM (inactive) and the GI50 (PC-3) was 35.8 µM (inactive) and 37.8 µM (inactive). For the same molecule, the GI50 (RPMI-8226) was 26.1 µM (inactive) and 30.8 µM (inactive), the GI50 (RXF 393) was 29.5 µM (inactive) and 24.5 µM (inactive) and the GI50 (SF-268) was 21.4 µM (inactive) and 25.5 µM (inactive). The GI50 (SF-295) was 40.5 µM (inactive) and 35.7 µM (inactive), the GI50 (SF-539) was 22.9 µM (inactive) and 40.1 µM (inactive) and the GI50 (SK-MEL-2) was 22.8 µM (inactive) and 24.2 µM (inactive). The GI50 (SK-MEL-5) was 23.4 µM (inactive) and 21.7 µM (inactive), the GI50 (SK-OV-3) was 29.4 µM (inactive) and 26.2 µM (inactive) and the GI50 (SN12C) was 76.4 µM (inactive) and 43.3 µM (inactive). For the same molecule, the GI50 (SNB-19) was 40 µM (inactive) and 55.8 µM (inactive), the GI50 (SNB-75) was 17.5 µM (inactive) and 15.6 µM (inactive) and the GI50 (SW-620) was > 100 µM (inactive). For the same molecule, the GI50 (T47D) was 18.6 µM (inactive) and 28.3 µM (inactive), the GI50 (U-251) was 46.5 µM (inactive) and 31.7 µM (inactive) and the GI50 (UACC-257) was 43.1 µM (inactive) and 23.7 µM (inactive). The GI50 (UACC-62) was 20.8 µM (inactive) and 20 µM (inactive).
